From patent US11471462B2, “Compositions and methods for detecting and treating diabetes” (THE BROAD INSTITUTE, INC., priority 2016, dated 2022)

System: SLC16A11
Test: Compound treatment, SLC16A11 expression by ddPCR in SNU761 cells
Format: cell-based, human
Settings: SNU761 cells; same doses and treatment times as in the LINCS dataset
Procedure: A small number of the compounds that made the strongest positive connections to the SLC16A11 gene expression signature were selected and tested. […] Methotrexate was also included, which had been annotated as a dihydrofolate reductase inhibitor. SNU761 cells (derived from a human hepatocellular carcinoma) and NCIH716 cells (derived from a human cecum adenocarcinoma), which both express SLC16A11, were treated with the compounds. The same compound concentrations and treatment times were used as in the LINCS dataset experiments. […] For normalization, a different housekeeper gene, HPRT1, was used and obtained similar results with the mTOR inhibitors (FIGS. 14A and 14B).
From the total list of compounds, 59 readily available compounds were selected from the 79 compounds with the largest connectivity scores to the query signature and 20 middle compounds with connectivity scores centered on 0 (FIG. 15A) and then treated SNU761 cells at the same doses and treatment times as were used in the LINCS dataset. It was expected that the top compounds would be enriched for compounds that increased SLC16A11 expression. […] The results were aligned with the expectations (FIG. 15B). Hierarchical clustering of the SLC16 expression profiles generated by the compound treatments are shown by the heat map in FIG. 15C.
SNU761 (human hepatocellular carcinoma) and NCIH716 (human cecum adenocarcinoma) were cultured in RPMI Medium 1640 supplemented with 10% Fetal Bovine Serum (FBS), 100 μg/ml Streptomycin and 100 U/ml Penicillin. Cells were grown in a humidified CO2 incubator, at 37° C.
For the unbiased approach taken to investigate the compounds that connected to the SLC16A11 gene expression signature, compounds were obtained from compound management at the Broad Institute.
SNU761 and NCIH716 cells were plated into 96 well plates at a density of 20,000 cells per well. Hepatocytes were plated into collagen coated 96 well plates (Corning, 354408) at a density of 50,000 cells per well. After 24 hours, cells were treated with compounds at a final concentration of 10 μM or vehicle control for the appropriate amount of time.
At the time of collection, cells in 96 well plates were lysed by directly adding 50 μL of RLT buffer (Qiagen). 75 μL of AMPure XP beads, diluted by a factor of 5 in polyethylene glycol, were then added to bind nucleic acids. One wash with polyethylene glycol was then performed. DNase treatment (Qiagen) was carried out according to the manufacturer's protocol in a final volume of 50 μL. 100 μL of polyethylene glycol was added after the DNase treatment to crowd nucleic acids back onto the beads. Two washes with 80% ethanol were performed and residual ethanol was removed. RNA was then eluted in water.
RNA was DNase treated and converted into cDNA using the High-Capacity RNA-to-cDNA kit (Thermo Fisher Scientific). The following FAM-labeled TaqMan Real-Time PCR assays (Thermo Fisher Scientific) were used to quantify gene expression: SLC16A11 (Hs00601062_g1), SLC16A13 (Hs00416832_m1), SLC16A1 (Hs01560299_m1). The VIC-labeled TaqMan Real-Time assays TBP (Hs00427620_m1) or HPRT1 (Hs02800695_m1) were used for normalization. Droplets were generated and analyzed using a QX200 Droplet Generator and Reader system (BioRad). Data was extracted using QuantaSoft (BioRad) and analyzed using Microsoft Excel.

Compound	avg_fc (SLC16A11 expression, compound treated vs DMSO treated cells)
N#CC(C#N)=C(N)/C(C#N)=C/c1ccc(O)cc1 [tyrphostin-AG-112]	0.7594
Cc1onc(-c2ccccc2)c1-c1ccc(S(N)(=O)=O)cc1 [valdecoxib]	1.069
CCCS(=O)(=O)Nc1ccc(F)c(C(=O)c2c[nH]c3ncc(-c4ccc(Cl)cc4)cc23)c1F [vemurafenib]	1.368
Nc1ccn([C@H]2CC[C@@H](CO)O2)c(=O)n1 [zalcitabine]	1.01
bisindolylmaleimide	0.4265

System: SLC16A11
Test: CRISPR (SAM) transactivation assay, SLC16A11 expression in 293T cells
Format: cell-based, human
Settings: Cas9-based transactivators (SAM) targeted near variant
Source text: These experiments are based upon Cas9 based transactivators (SAM or synergistic activation mediators) as described in Konermann et al (Nature 517: 583-588, 2015). Similar experiments based on other types of transactivators that are more finely tuned to distal activation such as those described in Hilton et al. (Nature 33:510-518, 2015) could also be envisioned. Cas9 was used to target transactivators to sites near individual variants in the credible set. Their ability to activate SLC16A11 gene expression was assessed (Table 10).
Cell lines derived from HEK293-T cells were established by lentivirus infection resulting in stable integration of two components of the SAM system namely dCas9-VP64 and MS2-p65-HSF1. The resulting stable cell lines were then plated into 96 well plates and left overnight. The next day, cells were transfected with the guide RNAs (pHKO23), the final component of the SAM system. After an additional 48 hours, cells were harvested for gene expression analyses.

Compound	Increases SLC16A11 transcript levels in transactivator assay
ACGGAAACTGGCGCGCTCCA (chemistry not given here)	TRUE
CTATTTCCACGCGTTGGCGG (chemistry not given here)	TRUE
GCGGGATTTAGGCATTGTTG (chemistry not given here)	TRUE
GGCTGCGTGTTAGTGGCTTC (chemistry not given here)	TRUE
GTACATAATTCAATCCCCGT (chemistry not given here)	TRUE
TCACGCGCGGCTTGCCGGAT (chemistry not given here)	TRUE
TGGCAGTCCCCGCGTCACGT (chemistry not given here)	TRUE
TGGCTCTGGGTGCTGAAACG (chemistry not given here)	TRUE
TGTTCTCAGGAACGTTGCCG (chemistry not given here)	TRUE
TTACAGGCTTGCACCGCGCC (chemistry not given here)	TRUE
rs191133 (guide 1 TGAAAGTAAGTCAATCATGG; guide 2 ATGATTGACTTACTTTCATC; listed as DNA, chemistry not given here; listed as Homo sapiens)	FALSE
rs193399 (guide 1 TAGAACCAGCTTCTAGGTTC; guide 2 TCCTTCCTGAACCTAGAAGC; listed as DNA, chemistry not given here; listed as Homo sapiens)	FALSE
rs312457 (guide 1 TGATGAAACCTGGCCGGGCA; guide 2 GTGAGCCACCGTGCCCGGCC; listed as DNA, chemistry not given here; listed as Homo sapiens)	FALSE
rs1698227 (guide 1 TGGTGCTAAGGGGCACACAC; guide 2 TGCTCATTTTCCTCTGCACT; listed as DNA, chemistry not given here; listed as Homo sapiens)	FALSE
rs2292351 (guide 1 AGCCTCTGGCTGCTCGCCCG; guide 2 CACCCCGGGCGAGCAGCCAG; listed as DNA, chemistry not given here; listed as Homo sapiens)	TRUE
rs4630597 (guide 1 GGTGCCTCAGATACCTGGTT; guide 2 AACCAGGTATCTGAGGCACC; listed as DNA, chemistry not given here; listed as Homo sapiens)	FALSE
rs17203120 (guide 1 CTTATTTGATTTTATCTCAA; guide 2 TTATTTGATTTTATCTCAAA; listed as DNA, chemistry not given here; listed as Homo sapiens)	FALSE
rs17203148 (guide 1 TCTGCCAATCTTGGCTCTGT; guide 2 GAAACCTACAGAGCCAAGAT; listed as DNA, chemistry not given here; listed as Homo sapiens)	FALSE
rs58223766 (guide 1 TCAGGAGTTCGAGACCATCC; guide 2 GATCCACCCCCCCCCCCCCT; listed as DNA, chemistry not given here; listed as Homo sapiens)	FALSE
rs73239895 (guide 1 ACTCCTGCCGGAGGTTCTCG; guide 2 AGGCCCCGAGAACCTCCGGC; listed as DNA, chemistry not given here; listed as Homo sapiens)	FALSE
rs74577409 (guide 1 ACCTGCCGCCTGCTGCGCGC; guide 2 CCCTGCGCGCAGCAGGCGGC; listed as DNA, chemistry not given here; listed as Homo sapiens)	TRUE
rs75075014 (guide 1 GGAAGTGGAGGAGAGTGTCC; guide 2 GGAGTCATGCCTGGAAGTGG; listed as DNA, chemistry not given here; listed as Homo sapiens)	FALSE
rs77552976 (guide 1 GAAAGGGCTGCCGTGCTGTT; guide 2 CCTGGCTGGACCTAACAGCA; listed as DNA, chemistry not given here; listed as Homo sapiens)	FALSE
rs78972129 (guide 1 GATGCTATGGTTGGCCACGC; guide 2 AGTACAGTACACAGCCTGCG; listed as DNA, chemistry not given here; listed as Homo sapiens)	FALSE
rs145952323 (guide 1 CAAAAATTAGCCGGGTGTGT; guide 2 CAGGCACACGCCAACACACC; listed as DNA, chemistry not given here; listed as Homo sapiens)	FALSE
rs186568031 (guide 1 GATTTTCACTCTTGTTGCCC; guide 2 TTCACTCTTGTTGCCCAGGC; listed as DNA, chemistry not given here; listed as Homo sapiens)	FALSE
